Measured values: PMC3582512, “Application of a Novel Microtitre Plate-Based Assay for the Discovery of New Inhibitors of DNA Gyrase and DNA Topoisomerase VI” (PLoS ONE, 2013)
Entries after “also recorded” stand apart in the source; their conditions may differ.

Assays:
[1] = target: T1, M. mazei topo VI (Methanosarcina mazei, UniProt Q8PUB7+Q8PUB8); experiment: Agarose gel-based DNA relaxation assay; assay type: biochemical; conditions: for IC50: gel relaxation assay, 1 unit (50 nM) topo VI, read-out: Approx. IC50 against M. mazei topo VI
T1 construct: His tag; made in house
Procedure: (§1) The agarose gel-based assay was conducted as previously described, [44], [62]. In brief, topoisomerases were incubated with 0.5 µg of plasmid and the desired concentration of compound for 30 min at 37°C (for DNA gyrase and M. mazei topo VI) or 5 min at 75°C (for S. shibatae topo VI), in a total volume of 30 µL. […] Reactions were stopped by the addition of a loading buffer containing EDTA and the drug extracted by vortexing with either chloroform or aqueous butanol as required. In the case of M. mazei topo VI, it was necessary to include SDS in the loading buffer, at a final concentration of 1%. Samples were loaded onto a 1% agarose gel, run for the appropriate length of time and stained with ethidium bromide before visualisation on a UV transilluminator.

[2] = target: T2, E. coli DNA gyrase (Escherichia coli, UniProt P0AES4+P0AES6); experiment: Protection from Ca2+-induced, gyrase-mediated DNA cleavage; assay type: biochemical; conditions: 80 µM, 4 mM calcium chloride
T2 construct: made in house
Procedure: (§2) Assays to detect the stabilisation of cleavage complexes were identical to the protocol for topoisomerase activity detailed above, except as follows. Cleavage experiments with DNA gyrase were carried out in the absence of ATP and spermidine and 30 µL reactions were stopped with 3 µL 10% SDS and incubated with 3 µL 1 mg/mL proteinase K solution at 37°C for 1 h. For cleavage complex protection assays with suramin, the reaction buffer was modified to contain 4 mM CaCl2 rather than MgCl2.

[3] = test system: E. coli strain NR698; experiment: Bacterial growth inhibition, membrane-permeable strain; assay type: cell-based, Escherichia coli; conditions: liquid and solid media
Procedure: (§3) For E. coli work, 10 mL cultures of E. coli MG1655 or NR698 were grown overnight at 37°C in LB medium. A 100 µL sample was then added to 10 mL of LB medium containing the desired concentration of compound. The culture was then allowed to grow at 37°C for 5 h and its OD600 measured every hour. For M. smegmatis, a 50 mL culture was grown for 48 h in Middlebrooks 7H11 medium at 37°C. A 100 µL sample was then added to 10 mL of Middlebrooks 7H11 containing the desired concentration of compound. The culture was then allowed to grow at 37°C for 9 h and its OD600 measured every three hours. For colony counting experiments M. smegmatis was grown for 48 h in 50 mL of Middlebrooks 7H9 medium at 37°C. A 100 µL sample was then added to 10 mL of Middlebrooks 7H9 medium containing the desired concentration test compound and allowed to grow at 37°C overnight. After 16 h, 20 µL samples were taken from these cultures and diluted 1 in 10,000 with Middlebrooks 7H9 medium. Petri dishes containing Middlebrooks 7H11 agar were prepared and 100 µL of each diluted culture was spread out. The plates were subsequently stored at 4°C. This was repeated every three hours for six hours, after which the plates were transferred to 37°C for 48 h. The numbers of colonies for each time point were counted manually.

[4] = test system: M. smegmatis mc^2155; experiment: Bacterial growth inhibition and colony counting; assay type: cell-based, Mycobacterium smegmatis
Procedure: as §3

[5] = target: T2, E. coli DNA gyrase; experiment: Native gel-shift assay, gyrase binding to 147 bp DNA fragment; conditions: 100 µM
Procedure: (§4) In order to test the effects of hit compounds upon DNA binding by topoisomerases, samples of enzyme and drug were prepared under the following conditions in a final volume of 10 μL: 1 nM 147 bp linear fragment of DNA derived from pBR322, [82] 50 mM Tris•HCl (pH 7.5), 100 mM KCl, 5 mM MgCl2, 2 mM DTT, 10% w/v glycerol. Samples were incubated for 30 min at room temperature before being run on a 5% (29:1) Protogel acrylamide (National Diagnostics) gel in 90 mM Tris·Borate, 5 mM MgCl2 at 150 V for 45 min. The DNA was stained by soaking in 2 µg/mL ethidium bromide for 10 min and visualised under UV light.

[6] = target: T2, E. coli DNA gyrase; experiment: Gel-based gyrase-mediated DNA cleavage assay; assay type: biochemical; conditions: absence of ATP, concentration not given
Procedure: as §2

[7] = target: T3, S. shibatae topo VI (Saccharolobus shibatae, UniProt O05207+O05208); experiment: Gel-based relaxation assay with S. shibatae topo VI; assay type: biochemical, Sulfolobus shibatae
T3 construct: gift from Danielle Gadelle (University of Paris XI, Orsay)
Procedure: as §1

[8] = target: T2, E. coli DNA gyrase; experiment: Agarose gel-based DNA supercoiling assay; assay type: biochemical
Procedure: as §1

[9] = target: T1, M. mazei topo VI; experiment: Native gel shift assay, topo VI binding to 147 bp DNA fragment
Procedure: as §4

[10] = test system: E. coli MG1655; experiment: Bacterial growth inhibition; assay type: cell-based, Escherichia coli; conditions: liquid and solid media
Procedure: as §3

[11] = target: T1, M. mazei topo VI; experiment: Pyruvate kinase-linked ATPase assay; assay type: biochemical; conditions: data not shown
Procedure: ATPase assays were performed essentially as described previously except they were adapted to a microplate format using clear, colourless 96-well Microtitre plates (Pro-bind™, Becton Dickinson). Reactions were carried out in 100 µL of the established reaction buffer for either DNA gyrase of M. mazei topo VI [36], [62] supplemented with: 800 µM phosphoenolpyruvate (PEP), 400 µM NADH, 1% (vol/vol) PK/LDH (pyruvate kinase-lactate dehydrogenase mixture in 50% (w/v) glycerol,100 mM KCl, 10 mM HEPES (pH 7.0)) and the desired concentration of hit compound. ATP was initially withheld from the reaction. After 5 min incubation at room temperature the reactions were initiated by the addition of ATP and the absorbance at 340 nm was measured over the course of an hour using a Spectra Max Plus absorbance reader (Molecular Devices). Data were processed by omitting the first 10–15 min of collection and normalising the first retained time point. This was done to exclude artifacts observed within this time frame and for ease of comparison of rates. Controls lacking topoisomerase were used to assess the intrinsic ATPase activity of the test compounds.

[12] = test system: Arabidopsis thaliana columbia (Col-0); experiment: Arabidopsis hypocotyl extension assay and plant growth; assay type: in vivo
Procedure: The hypocotyl extension assay was conducted as previously described, [66]. MS Salts medium (containing micro and macro elements including vitamins, pH 5.8) was supplemented with 1 g/L sucrose and 0.7 g/L phytagel (Sigma) before autoclaving. After the medium cooled to ∼50°C it was divided into 50 mL aliquots and compounds to be tested (or an equivalent amount of appropriate solvent for control plates) then added at the desired concentration under aseptic conditions. The media were then poured into separate 100 mm square Petri dishes and allowed to cool to room temperature in a laminar flow hood. Arabidopsis thaliana columbia (Col-0) seeds were surface sterilised with 5% bleach for 10 min immediately prior to use. The seeds were then washed three times with sterile water under a laminar flow hood. After surface sterilisation the seeds were planted in a grid pattern (32 seeds per dish) and the dishes sealed with surgical tape. The plates were transferred to 4°C and left for 64 h in the dark to vernalise, after which they were transferred to a 22°C growth cabinet. After 2 h of light exposure the plates were stacked vertically in the dark at 22°C to allow for hypocotyl extension along the agar surface. After 4–5 days the hypocotyls were observed using an optical microscope and their length measured. For experiments where the plants were allowed to form rosettes, the Arabidopsis seedlings were grown horizontally under a 16 h day in a 22°C growth cabinet for the indicated number of weeks.

[13] = test system: Arabidopsis thaliana hypocotyl cells; experiment: Cryo-SEM of Arabidopsis hypocotyls (cell size); assay type: in vivo; conditions: 40 µM, 5 days in the dark; control ∼300 µm
Source text: Five day old hypocotyls grown on media containing various concentrations of compound were frozen in nitrogen slush and loaded into a Philips XL30 SEM with a cryo stage installed. Samples were sputter coated with platinum and transferred into the microscope chamber for image collection.

T1 sequence (Q8PUB8 whole entry): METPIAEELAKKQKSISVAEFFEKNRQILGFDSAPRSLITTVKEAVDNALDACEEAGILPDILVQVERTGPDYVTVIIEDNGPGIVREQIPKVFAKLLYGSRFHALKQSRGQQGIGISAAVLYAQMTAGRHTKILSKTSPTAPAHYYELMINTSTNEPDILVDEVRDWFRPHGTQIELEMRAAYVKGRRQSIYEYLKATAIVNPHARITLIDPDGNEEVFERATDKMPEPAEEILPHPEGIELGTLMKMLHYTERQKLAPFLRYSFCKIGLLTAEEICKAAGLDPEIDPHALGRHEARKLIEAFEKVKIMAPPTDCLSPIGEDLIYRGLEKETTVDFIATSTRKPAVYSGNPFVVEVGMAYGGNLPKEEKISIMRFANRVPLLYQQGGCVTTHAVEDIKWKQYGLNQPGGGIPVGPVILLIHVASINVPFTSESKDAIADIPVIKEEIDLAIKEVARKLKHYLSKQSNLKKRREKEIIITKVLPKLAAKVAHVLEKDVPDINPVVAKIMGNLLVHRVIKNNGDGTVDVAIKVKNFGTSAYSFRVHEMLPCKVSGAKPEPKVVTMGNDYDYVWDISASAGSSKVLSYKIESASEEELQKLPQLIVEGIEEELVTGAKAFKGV
T1 sequence (Q8PUB7 whole entry): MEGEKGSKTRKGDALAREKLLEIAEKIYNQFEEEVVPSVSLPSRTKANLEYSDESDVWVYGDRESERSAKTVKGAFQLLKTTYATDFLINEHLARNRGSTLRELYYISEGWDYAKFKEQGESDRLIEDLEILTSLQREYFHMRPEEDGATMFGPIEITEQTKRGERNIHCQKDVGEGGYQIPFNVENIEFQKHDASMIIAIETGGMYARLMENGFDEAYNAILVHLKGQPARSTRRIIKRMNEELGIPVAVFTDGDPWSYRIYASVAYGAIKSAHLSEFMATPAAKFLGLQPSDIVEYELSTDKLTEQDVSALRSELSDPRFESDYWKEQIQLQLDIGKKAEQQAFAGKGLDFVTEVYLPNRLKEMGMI
T3 sequence (O05207 whole entry): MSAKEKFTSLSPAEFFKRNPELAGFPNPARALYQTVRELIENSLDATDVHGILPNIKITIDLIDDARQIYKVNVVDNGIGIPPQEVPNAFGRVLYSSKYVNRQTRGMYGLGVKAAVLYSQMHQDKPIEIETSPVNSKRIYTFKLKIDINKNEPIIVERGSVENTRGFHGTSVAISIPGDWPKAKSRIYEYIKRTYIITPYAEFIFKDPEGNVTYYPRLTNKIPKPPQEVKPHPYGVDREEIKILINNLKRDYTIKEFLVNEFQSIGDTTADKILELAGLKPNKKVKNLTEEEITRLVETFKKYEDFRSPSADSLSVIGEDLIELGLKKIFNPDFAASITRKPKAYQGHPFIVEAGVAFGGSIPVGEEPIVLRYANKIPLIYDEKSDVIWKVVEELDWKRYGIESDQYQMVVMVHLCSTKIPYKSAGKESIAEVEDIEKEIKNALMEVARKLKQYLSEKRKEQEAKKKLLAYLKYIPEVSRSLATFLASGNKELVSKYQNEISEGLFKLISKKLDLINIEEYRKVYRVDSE
T3 sequence (O05208 whole entry): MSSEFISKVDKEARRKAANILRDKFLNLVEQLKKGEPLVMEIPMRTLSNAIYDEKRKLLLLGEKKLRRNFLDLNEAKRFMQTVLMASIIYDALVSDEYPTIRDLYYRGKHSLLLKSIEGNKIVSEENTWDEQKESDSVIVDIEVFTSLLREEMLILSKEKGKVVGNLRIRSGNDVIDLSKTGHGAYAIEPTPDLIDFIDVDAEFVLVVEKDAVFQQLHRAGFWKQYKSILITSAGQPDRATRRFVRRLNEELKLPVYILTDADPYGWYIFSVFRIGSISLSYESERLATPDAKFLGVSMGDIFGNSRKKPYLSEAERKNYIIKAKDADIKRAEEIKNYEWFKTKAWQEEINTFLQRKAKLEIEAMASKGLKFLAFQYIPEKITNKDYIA
T2 sequence (P0AES4 whole entry, one chain of several): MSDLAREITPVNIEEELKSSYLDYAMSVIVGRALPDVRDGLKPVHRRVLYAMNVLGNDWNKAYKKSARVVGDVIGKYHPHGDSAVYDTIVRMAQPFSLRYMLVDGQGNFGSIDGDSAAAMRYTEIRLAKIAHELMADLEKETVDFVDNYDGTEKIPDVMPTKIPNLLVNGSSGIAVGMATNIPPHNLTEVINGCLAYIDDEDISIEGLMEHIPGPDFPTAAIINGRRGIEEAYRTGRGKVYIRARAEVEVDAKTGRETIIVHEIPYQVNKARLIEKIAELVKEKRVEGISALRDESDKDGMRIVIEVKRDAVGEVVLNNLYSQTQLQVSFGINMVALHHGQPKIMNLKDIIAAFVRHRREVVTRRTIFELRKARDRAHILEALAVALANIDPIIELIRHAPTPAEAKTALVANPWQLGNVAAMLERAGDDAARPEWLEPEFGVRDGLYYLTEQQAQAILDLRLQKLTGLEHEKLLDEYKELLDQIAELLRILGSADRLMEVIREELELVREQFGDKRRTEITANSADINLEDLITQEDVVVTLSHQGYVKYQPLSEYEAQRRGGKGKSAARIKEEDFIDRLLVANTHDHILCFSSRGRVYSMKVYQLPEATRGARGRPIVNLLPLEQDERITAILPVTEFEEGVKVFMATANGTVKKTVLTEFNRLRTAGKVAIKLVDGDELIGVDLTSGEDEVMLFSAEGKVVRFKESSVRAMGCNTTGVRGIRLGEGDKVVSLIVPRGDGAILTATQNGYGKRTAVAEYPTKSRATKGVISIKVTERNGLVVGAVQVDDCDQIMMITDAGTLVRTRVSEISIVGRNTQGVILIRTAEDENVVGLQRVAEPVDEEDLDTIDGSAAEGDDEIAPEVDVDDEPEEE

SMILES: Cc1ccc(C(=O)Nc2ccc(S(=O)(=O)O)c3cc(S(=O)(=O)O)cc(S(=O)(=O)O)c23)cc1NC(=O)c1cccc(NC(=O)Nc2cccc(C(=O)Nc3cc(C(=O)Nc4ccc(S(=O)(=O)O)c5cc(S(=O)(=O)O)cc(S(=O)(=O)O)c45)ccc3C)c2)c1 [Suramin]
- Inhibition in gel-based relaxation assay (hit validation) [1]: validated as hits
- IC50 [1]: 30 µM
- Mechanism (Topo VI) ([1]; summary of mechanistic tests with M. mazei and S. shibatae topo VI): Blocks DNA binding
- Protection of DNA from Ca2+-induced cleavage by gyrase [2]: completely protect DNA from cleavage
- Inhibition of growth / antimicrobial activity [3]: no antimicrobial activity
- Antimicrobial activity [4]: no antimicrobial activity
- Effect on gel shift of 147 bp DNA by DNA gyrase [5]: abolishes this shift
- Induction of gyrase-mediated DNA cleavage [6]: did not display any ability to induce cleavage
- Inhibition of S. shibatae topo VI [7]: did not display any inhibition; also recorded: did not inhibit
- Inhibition in gel-based supercoiling assay (hit validation) [8]: displayed inhibition
- IC50 ([8]; gel supercoiling assay, 1 unit of gyrase (12 nM), read-out: Approx. IC50 against E. coli DNA gyrase): 80 µM
- Mechanism (DNA gyrase) ([8]; summary of this study's mechanistic tests): Blocks DNA binding
- Effect on binding of M. mazei topo VI to DNA [9]: appeared to prevent the binding of topo VI to DNA; also recorded: appeared to prevent G-segment binding
- Inhibition of growth / antimicrobial activity [10]: no antimicrobial activity

SMILES: CCCCCCc1ccc(O)cc1O [Hexylresorcinol]
- Inhibition in gel-based relaxation assay (hit validation) [1]: validated as hits
- IC50 [1]: 30 µM
- Effect on M. mazei topo VI ATPase activity [11]: appeared to increase the rate of ATP hydrolysis
- Effect on M. mazei topo VI ATPase activity ([11]; listed as hexylresorcinol): appears to stimulate hydrolysis of ATP
- Average hypocotyl length ([12]; 40 µM): considerably reduced
- Plants able to develop into a rosette ([12]; 40 µM, three-week-old plants): seven of the 32 plants
- Average length of seedlings (hypocotyl) ([12]; 50 µM, 10 mm in the absence of drug, 5 days in the dark): approximately 1 mm
- Seed germination ([12]; 80 µM): germination was reduced
- Seed germination ([12]; 100 µM): completely preventing seed germination; also recorded: no seeds germinated
- Number of seeds germinated ([12]; up to 50 µM): remained constant
- Hypocotyl cell size, seedlings with dwarf morphology [13]: ~50 µm
- Inhibition of S. shibatae topo VI [7]: did not display any inhibition
